From patent publication US4745112A, “Oxadiazolylimidazobenzodiazepine, compositions, and method III” (A/S Ferrosan, priority 1985, dated 1988)

Tests used:
[1] = tested on: benzodiazepine receptors; assay: In vivo inhibition of 3H-flunitrazepam binding to mouse forebrain membranes, test substances i.p. (Procedure 130); settings: 3H-flunitrazepam i.v., dose inhibiting 50% of specific forebrain binding
Protocol: I. In vivo inhibition of ^3 H-flunitrazepam binding to mouse forebrain membranes by test substances administered intraperitoneally. (Procedure 130)
Twenty minutes after a dose of ^3 H-flunitrazepam (^3 H-FNM) (200 μCi/kg, i.v.) the amount of specific ^3 H-FNM binding to brain benzodiazepine receptors has reached its maximal value.
Suspensions of test substances (2 mg/ml) are prepared in 5% Duphasol-X* by sonification for 10 min using a Branson B15 microtip ultrasonifier (setting 7). Groups of three mice (female, NMR, 18-22 gram) are injected with the test substance at 100 mg/kg intraperitoneally. Fifteen minutes after test substance administration the mice are challenged with 4 μCi intravenously of ^3 H-FNM (70-90 Ci/mole) in 200 μl physiological saline. Twenty minutes after ^3 H-FNM administration mice are sacrificed by decapitation, the forebrains rapidly excised (within 30 sec) and homogenized in 12 ml of icecold 25 mM KH2 PO4, pH 7.1, using an Ultra-Turrax homogenizer fitted with an N 10 shaft. Two aliquots of 1 ml are immediately filtered through Whatman GF/C glassfibre filters and washed with 2×5 ml of the above mentioned buffer. The amounts of radioactivity on the filters are determined by conventional scintillation counting. One group of untreated mice serves as controls. One to three mice are injected with 25 mg/kg clonazepam i.p. 30 minutes before ^3 H-FNM to determine the amount of non-specific ^3 H-FNM binding, which should be between 8-15% of total binding.
When doses of 100 mg/kg inhibit more than 50% of specific ^3 H-flunitrazepam binding; test substances are administered in doses, which are factors of 3.16 times lower than 100 mg/kg.
The ED50 for a test substance is defined as that dose which inhibits 50% of specific ^3 H-FNM binding. Specific binding is the amount of binding in controls minus the amount binding in clonazepam-treated mice.
The ED50 value is determined from dose response curves. If only one dose of test substance is administered the ED50 value is calculated as follows, provided that the inhibition of specific binding is within the range of 25-75%: [formula] where Co is specific binding in controls and Cx is specific binding in mice treated with test substance.

[2] = tested on: pentylenetetrazol induced clonic convulsions; assay: Pentazol clonic conv. mice (i.p.) (Procedure 400); format: in vivo, mice (NMRI); settings: Mus musculus, ip, 0.5 h, i.p. 30 min before pentylenetetrazol 150 mg/kg s.c., clonic seizures, read-out: ED50 activity against pentazol induced convulsions, clonic
Protocol: II. Pentazol clonic conv. mice (i.p.) (Procedure 400)
(§1) Pentylenetetrazol induces clonic and tonic convulsions in mice at doses of 60-120 mg/kg s.c. The mechanism is unknown but seems to be due to some effects through the GABA receptor/benzodiazepine receptor/chloride ionophore complex. Antagonism of convulsions induced by maximal doses of pentylenetetrazol is considered predictive for drugs effective against petit mal epilepsia and anxiety.
150 mg/kg pentylenetetrazol dissolved in 0.9% NaCl is given by the subcutaneous route in volume of 15 ml/kg to male or female NMRI mice weighing 20-25 g 30 min after an intraperitoneal injection of a test compound.
The ED50 value is calculated as the dose in μg/kg at which seizures are inhibited in 50% of the animals using a computer program based on the method of Litchfield and Wilcoxon (1949).

[3] = tested on: pentylenetetrazol induced tonic convulsions; assay: Pentazol tonic conv. mice i.p. (Procedure 401); format: in vivo, mice (NMRI); settings: Mus musculus, ip, 0.5 h, i.p. 30 min before pentylenetetrazol 150 mg/kg s.c., tonic seizures, read-out: ED50 activity against pentazol induced convulsions, tonic
Protocol: III. Pentazol tonic conv. mice i.p. (Procedure 401)
as §1, with “seem” for “seems”
150 mg/kg pentylenetetrazol (Pentazol, Sigma) dissolved in 0.9% NaCl is given by the subcutaneous route in volumes of 15 ml/kg to male or female NMRI mice weighing 20-25 g 30 min after an intraperitoneal injection of a test compound.
The ED50 value is calculated as the dose in μg/kg where seizures are inhibited in 50% of the animals using a computer program based on the method of Litchfield and Wilcoxon (1949).

Structure (SMILES) | ED50 binding in vivo [1] | ED50 [2] | ED50 [3]
CC(C)c1noc(-c2ncn3c2CN(C)C(=O)c2c(Cl)cccc2-3)n1 | 200 µg/kg | 0.6 mg/kg | 0.2 mg/kg
CN1Cc2c(-c3noc(C4CC4)n3)ncn2-c2cccc(C(F)(F)F)c2C1=O | 10 µg/kg | 0.008 mg/kg | 0.003 mg/kg
O=C1c2c(Cl)cccc2-n2cnc(-c3nc(C4CC4)no3)c2C2CCCN12 (stereo not drawn) | 230 µg/kg | – | 0.08 mg/kg
CN1Cc2c(-c3nc(C4CC4)no3)ncn2-c2cccc(Cl)c2C1=O | 60 µg/kg | 0.09 mg/kg | 0.03 mg/kg
O=C1c2c(Cl)cccc2-n2cnc(-c3noc(C4CC4)n3)c2C2CCCN12 (stereo not drawn) | 960 µg/kg | – | –
CN1Cc2c(-c3noc(C4CC4)n3)ncn2-c2cccc(F)c2C1=O | 90 µg/kg | 0.02 mg/kg | 0.005 mg/kg
